Values joined by “and” are separate entries in the source; they are usually repeats but may differ in a detail not shown here. Equal entries are not always repeated. “Also recorded” adds a separate entry of the source. Where two headings read alike, the source gives them in different places.
Key:
hMC4-R [1] = molecular target: T1, hMC4-R; test: Competitive inhibition assay using [I125]-NDP-α-MSH, hMC4-R membranes; type: binding, human; conditions: for attenuation of binding of α-MSH and AgRP to MC4-R: both ligands (NDP-α-MSH and AgRP), summary
T1 construct: expressed in transfected cells; host or cells: HEK-293

MC1-R [2] = system: T2, MC1-R; test: cAMP functional assay, B-16 mouse melanoma cells expressing MC1-R; type: cell-based; conditions: cAMP assay at 1 μM
T2 construct: from B-16 mouse melanoma cells (containing MC1-R); endogenous in cells; host or cells: B-16 mouse melanoma cells
Protocol: (§1) General method for EC50 determination in functional activity assay. Functional evaluation of compounds at melanocortin receptors was performed by measuring the accumulation of intracellular cAMP in HEK-293 cells expressing hMC3-R, hMC4-R or hMC5-R, and in B-16 mouse melanoma cells expressing MC1-R. Cells suspended in Earle's Balanced Salt Solution containing 10 mM HEPES (pH 7.5), 5 mM MgCl2, 1 mM glutamine, 0.1% albumin and 0.6 mM 3-isobutyl-1-methyl-xanthine, a phosphodiesterase inhibitor, were plated in 96 well plates at a density of 0.5×10^5 cells per well. Cells were incubated with the test compounds in the presence or absence of α-MSH for 1 hour at 37° C. cAMP levels in the cell lysates were measured using an EIA kit (Amersham). Data analysis and EC50 values were determined using nonlinear regression analysis with Prism Graph-Pad software.
(§2) Functional status. The agonist/antagonist status with respect to MC1-R, MC-3R, MC4-R and MC5-R of certain compounds of the invention was determined.

hMC3-R [3] = molecular target: T3, hMC3-R; test: Competitive inhibition assay using [I125]-NDP-α-MSH, hMC3-R membranes; type: binding, human; conditions: read-out: Ki (nM) (NDP-α-MSH) MC3-R
T3 construct: expressed in transfected cells; host or cells: HEK-293
How it was run: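 Single-concentration displacement (usually 1 μM compound) of 0.2–0.4 nM [125I]-NDP-α-MSH, run 90 min at room temperature in pH 7.2 HEPES containing MgCl2, CaCl2 and KCl. Receptor sources: transfected HEK-293 membranes for human MC3-R/MC4-R/MC5-R, B-16 mouse melanoma membranes for MC1-R. Bound counts normalised to 1 μM α-MSH-defined specific binding; triplicates averaged, values below 0% set to 0%.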

hMC3-R [4] = system: T3, hMC3-R; test: cAMP functional assay, HEK-293 cells expressing hMC3-R; type: cell-based, human; conditions: cAMP assay at 1 μM
Protocol: as §1, §2

hMC5-R [5] = system: T4, hMC5-R; test: cAMP functional assay, HEK-293 cells expressing hMC5-R; type: cell-based, human; conditions: cAMP assay at 1 μM
T4 construct: expressed in transfected cells; host or cells: HEK-293
Protocol: as §1, §2

hMC4-R [6] = system: T1, hMC4-R; type: binding, human; conditions: for Inhibition at 1 μM (AgRP) MC4-R: 1 μM compound
How it was run: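 Membranes from hMC4-R-expressing cells incubated 1 h at 37 °C with 0.2 nM [I^125]-AgRP (83-132) and increasing compound in 25 mM HEPES pH 7.5, 100 mM NaCl, 2 mM CaCl2, 2 mM MgCl2, 0.3 mM 1,10-phenanthroline, 0.5% BSA. Filtration, gamma counting; specific binding kept ≤10% of added counts.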

hMC5-R [7] = molecular target: T4, hMC5-R; test: Competitive inhibition assay using [I125]-NDP-α-MSH, hMC5-R membranes; type: binding, human; conditions: read-out: Ki (nM) (NDP-α-MSH) MC5-R
Protocol: Competitive inhibition assay using [1125]-NDP-α-MSH. A competitive inhibition binding assay was conducted using membranes prepared from HEK-293 cells transfected to express hMC3-R, hMC4-R or hMC5-R, and from B-16 mouse melanoma cells (containing MC1-R) using 0.2 to 0.4 nM [I^125]-NDP-α-MSH (New England Nuclear) in 50 mM HEPES buffer containing 1 mM MgCl2, 2 mM CaCl2, and 5 mM KCl, at pH 7.2. In certain experiments, HEK-293 cells transfected to express hMC1-R were also employed. The assay tube also contained a chosen concentration of the test compound of this invention, typically a 1 μM concentration, for determining inhibition of the binding of [^1125]-NDP-α-MSH to its receptor. Non-specific binding was measured by inhibition of binding of [I^125]-NDP-α-MSH in the assay with the presence of 1 μM α-MSH.
The assay mixture was incubated for 90 minutes at room temperature, then filtered and the membranes washed three times with ice cold buffer. The filter was dried and counted in a gamma counter for remaining radioactivity bound to the membranes. 100% specific binding was defined as the difference in radioactivity (cpm) bound to cell membranes in the absence and presence of 1 μM α-MSH. The cpm obtained in presence of test compounds were normalized with respect to 100% specific binding to determine the percent inhibition of [125]-NDP-α-MSH binding. Each assay was conducted in triplicate and the actual mean values are described, with results less than 0% reported as 0%.

MC1-R [8] = molecular target: T5, MC1-R; test: Competitive inhibition assay using [I125]-NDP-α-MSH, MC1-R membranes; type: binding, mouse; conditions: for Inhibition at 1 μM (NDP-α-MSH) MC1-R: 1 μM compound
T5 construct: other: 1 μM compound

hMC4-R [9] = system: T1, hMC4-R; test: cAMP functional assay in HEK-293 cells expressing MC4-R (agonist, neutral antagonist/Schild); type: cell-based, human; conditions: for intrinsic activity at MC4-R: NDP-α-MSH maximal stimulation = 1.0; for functional status at MC4-R: mostly at 1 μM
How it was run: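 Cells in EBSS/HEPES pH 7.5 with 0.3 mM IBMX, exposed to compound (0.05-5000 nM, 1% DMSO) for 1 h at 37 °C; cAMP by EIA, EC50 by nonlinear regression. Antagonism: 30 min compound pre-incubation, then 1 nM NDP-α-MSH for 1 h; Schild analysis over 0.005-5000 nM agonist gives pA2.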

[10] = MC4-R membranes, Table 1, read-out: Ki (nM) I125-NPD-α-MSH
[11] = read-out: Ki (nM) (NDP-α-MSH) MC4-R
[12] = MC4-R membranes, Table 1, read-out: Ki (nM) I125-AgRP
[13] = cAMP assay, read-out: EC50 (nM) at MC4-R

Compound | Ki (hMC4-R [1]; [10]) | attenuation of binding of α-MSH and AgRP to MC4-R (hMC4-R [1]) | Ki (hMC4-R [1]; [11]) | functional status at MC1-R (MC1-R [2]) | Ki (hMC3-R [3]) | functional status at MC3-R (hMC3-R [4]) | functional status at MC5-R (hMC5-R [5]) | Inhibition at 1 μM (AgRP) MC4-R (hMC4-R [6]) | Ki (hMC4-R [6]; [12]) | Ki (hMC4-R [6]; read-out: Ki (nM) (AgRP) MC4-R) | Ki (hMC5-R [7]) | Ki (MC1-R [8]) | Inhibition at 1 μM (NDP-α-MSH) MC1-R (MC1-R [8]) | functional status (pAg, Ag, Antag, Inactive) (hMC4-R [9]; MC4-R, Table 1) | EC50 (hMC4-R [9]; MC4-R, Table 1, read-out: EC50) | intrinsic activity at MC4-R (hMC4-R [9]) | functional status at MC4-R (hMC4-R [9]; cAMP assay) | EC50 (hMC4-R [9]; [13]) | Inhibition at 1 μM (NDP-α-MSH) MC4-R (hMC4-R [1]; 1 μM compound) | pA2 value at MC4-R (hMC4-R [9]; Schild plot vs NDP-α-MSH)
Cc1cc(Cl)ccc1C[C@@H](N)C(=O)N1C[C@@H](C)N(C(=O)Cc2ccc3ccccc3c2)C[C@@H]1CCCNC(=N)N [Example 11, N-{3-[1-[2(R)-amino-3-(4-chloro-2-dimethyl-phenyl)-propionyl]-5(R)-methyl-4-(2-naphthalen-2-yl-acetyl)-piperazin-2(S)-yl]-propyl}-guanidine] | 3 nM | attenuate the binding of both α-MSH and AgRP to MC4-R | 3 nM | partial agonist (intrinsic activity between 0.1 (10%) and 0.7 (70%) is classified as a partial agonist) | 398 nM | partial agonist (intrinsic activity between 0.1 (10%) and 0.7 (70%) is classified as a partial agonist) | agonist (intrinsic activity of 0.7 (70%) or higher is classified as an agonist) | 89% | 27 nM | 27 nM | 774 nM | 462 nM | 3% | Ag | 18 nM | 0.9 | agonist (intrinsic activity of 0.7 (70%) or higher is classified as an agonist) | 18 nM |  | 
NH2—(CH2)6—C(═O)-Ser(Bzl)-D-Phe(4-Cl)-Arg-Trp-Asp-NH2 [Example 14] |  |  |  | inactive | 180 nM | partial agonist (intrinsic activity between 0.1 (10%) and 0.7 (70%) is classified as a partial agonist) | inactive |  |  |  |  | 760 nM | 35% | pAg (“pAg” means partial agonist) | 568 nM | 0.5 | partial agonist (intrinsic activity between 0.1 (10%) and 0.7 (70%) is classified as a partial agonist) | 568 nM |  | 
C[C@@H]1CN(C(=O)[C@H](N)Cc2ccc(Cl)cc2Cl)[C@@H](CCCNC(=N)N)CN1CCc1ccc2ccccc2c1 [Example 12, N-{3-[1-[2(R)-Amino-3-(2,4-dichloro-phenyl)-propionyl]-5(R)-methyl-4-(2-naphthalen-2-yl-ethyl)-piperazin-2(S)-yl]-propyl}-guanidine] |  |  |  | inactive |  | inactive | inactive |  |  |  |  | 1130 nM | 20% | Antag (“Antag” means antagonist) |  |  | antagonist |  | 99% | 7.52 and 7.7
Cc1cc(Cl)ccc1C[C@@H](N)C(=O)N1C[C@@H](C)N(CCc2c[nH]c3ccccc23)C[C@@H]1CCCNC(=N)N [Example 10, N-(3-{1-(2(R)-Amino-(4-chloro-2-methyl-phenyl)-propionyl)-5(R)-methyl-4-[2-(1H-indol-3-yl)-ethyl]-piperazin-2(S)-yl}-propyl)-guanidine] | 5 nM | attenuate the binding of both α-MSH and AgRP to MC4-R | 5 nM | no intrinsic activity (intrinsic activity below 0.1 (10%) is classified as inactive or having no intrinsic activity) | 177 nM | no intrinsic activity (intrinsic activity below 0.1 (10%) is classified as inactive or having no intrinsic activity) | no intrinsic activity (intrinsic activity below 0.1 (10%) is classified as inactive or having no intrinsic activity) | 97% | 5 nM | 5 nM | 360 nM | 1730 nM | 40% | pAg (“pAg” means partial agonist) | 7 nM | 1 | partial agonists; also recorded: full agonist | > 7 nM |  | 
C[C@@H]1CN(C(=O)[C@H](N)Cc2ccc3ccccc3c2)[C@@H](CCCNC(=N)N)CN1C(=O)Cc1c[nH]c2ccccc12 [Example 6, N-{3-[1-(2(R)-Amino-3-naphthalen-2-yl-propionyl)-4-(2-1H-indol-3-yl-acetyl)-5(R)-methyl-piperazin-2(S)-yl]-propyl}-guanidine] | 35 nM | attenuate the binding of both α-MSH and AgRP to MC4-R | 35 nM | no intrinsic activity (intrinsic activity below 0.1 (10%) is classified as inactive or having no intrinsic activity) | 1820 nM | no intrinsic activity (intrinsic activity below 0.1 (10%) is classified as inactive or having no intrinsic activity) | partial agonist (intrinsic activity between 0.1 (10%) and 0.7 (70%) is classified as a partial agonist) | 84% | 83 nM | 83 nM | 1530 nM | 315 nM | 20% | pAg (“pAg” means partial agonist) | > 1000 nM | 0.2 |  | > 1000 nM |  | 

From US20090076029A1 (Palatin Technologies, Inc., priority 2007, published 2009)
